Test results as given in PubChem BioAssay AID330 (DTP/NCI, 2004).
Several values for one entry are separate records, joined by “and”; a condition that tells them apart may be missing. Equal values may be shown once. Toxic doses and inconclusive results are not listed. Rule for the calls: active = survival T/C of 150% or more; inactive = T/C below 125% in these data.

Test system: P388 leukemia ip, CD2F1 mice, survival T/C
Assay: NCI In Vivo Anticancer Drug Screen. Data for tumor model P388 Leukemia (intraperitoneal) in CD2F1 (CDF1) mice
Conditions: endpoint: median survival time, higher = longer survival
Summary of the method: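 Mice carrying the transplanted tumor received test compound or vehicle. Survival was recorded in each group, and the value is the treated-group measurement divided by that of the vehicle-treated control group.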

[1] = dose: 50.0 mg/kg/injection, schedule: Q01DX009 (ip), vehicle: saline with Tween-80
[2] = dose: 100.0 mg/kg/injection, schedule: Q01DX009 (ip), vehicle: saline with Tween-80
[3] = dose: 200.0 mg/kg/injection, schedule: Q01DX009 (ip), vehicle: saline with Tween-80
[4] = dose: 7.5 mg/kg/injection, schedule: Q01DX005 (ip), vehicle: Klucel (hydroxypropylcellulose) (HPC)
[5] = dose: 15.0 mg/kg/injection, schedule: Q01DX005 (ip), vehicle: Klucel (hydroxypropylcellulose) (HPC)
[6] = dose: 30.0 mg/kg/injection, schedule: Q01DX005 (ip), vehicle: Klucel (hydroxypropylcellulose) (HPC)
[7] = dose: 120.0 mg/kg/injection, schedule: Q01DX005 (ip), vehicle: Klucel (hydroxypropylcellulose) (HPC)
[8] = dose: 240.0 mg/kg/injection, schedule: Q01DX005 (ip), vehicle: Klucel (hydroxypropylcellulose) (HPC)
[9] = dose: 60.0 mg/kg/injection, schedule: Q01DX005 (ip), vehicle: saline with Tween-80
[10] = dose: 120.0 mg/kg/injection, schedule: Q01DX005 (ip), vehicle: saline with Tween-80
[11] = dose: 240.0 mg/kg/injection, schedule: Q01DX005 (ip), vehicle: saline with Tween-80
[12] = dose: 50.0 mg/kg/injection, schedule: Q01DX005 (ip), vehicle: saline with Tween-80
[13] = dose: 100.0 mg/kg/injection, schedule: Q04DX003 (ip), vehicle: saline with Tween-80
[14] = dose: 200.0 mg/kg/injection, schedule: Q04DX003 (ip), vehicle: saline with Tween-80
[15] = dose: 400.0 mg/kg/injection, schedule: Q04DX003 (ip), vehicle: saline with Tween-80
[16] = dose: 50.0 mg/kg/injection, schedule: Q01DX005 (ip), vehicle: Klucel (hydroxypropylcellulose) (HPC)
[17] = dose: 100.0 mg/kg/injection, schedule: Q01DX005 (ip), vehicle: Klucel (hydroxypropylcellulose) (HPC)
[18] = dose: 200.0 mg/kg/injection, schedule: Q01DX005 (ip), vehicle: Klucel (hydroxypropylcellulose) (HPC)
[19] = dose: 50.0 mg/kg/injection, schedule: Q01DX009 (ip), vehicle: saline
[20] = dose: 100.0 mg/kg/injection, schedule: Q01DX009 (ip), vehicle: saline
[21] = dose: 60.0 mg/kg/injection, schedule: Q01DX005 (ip), vehicle: Klucel (hydroxypropylcellulose) (HPC)
[22] = dose: 200.0 mg/kg/injection, schedule: Q01DX009 (ip), vehicle: saline

Measured: T/C

O=[N+]([O-])c1ccc(OCS(=O)(=O)c2ccc(Cl)cc2)cc1
inactive: [1] 95 % of control | [2] 92 % of control | [3] 95 % of control

COc1ccc(-n2c(SCC(=O)NC(=O)Nc3ccccc3)nc3c(Br)cc(Br)cc3c2=O)cc1
inactive: [4] 97 % of control | [5] 92 % of control | [6] 86 % of control and 94 % of control | [7] 90 % of control | [8] 101 % of control

Nc1c(Cl)cc(C(=O)O)cc1Cl
inactive: dose: 25.0 mg/kg/injection, schedule: Q01DX009 (ip), vehicle: saline with Tween-80 95 % of control | [1] 90 % of control | [2] 87 % of control | [3] 100 % of control

Fc1c(F)c(F)c(CCc2c(F)c(F)c(F)c(F)c2F)c(F)c1F
inactive: [9] 99 % of control | [10] 89 % of control | [11] 88 % of control

C=C1C(=O)O[C@@H]2/C=C(/C)[C@@]3(O)C=C[C@](C)(C[C@@H](OC(=O)/C(=C\C)COC(C)=O)[C@@H]12)O3
inactive: dose: 2.5 mg/kg/injection, schedule: Q01DX009 (ip), vehicle: carboxymethylcellulose (CMC) 106 % of control | dose: 5.0 mg/kg/injection, schedule: Q01DX009 (ip), vehicle: carboxymethylcellulose (CMC) 120 % of control | dose: 10.0 mg/kg/injection, schedule: Q01DX009 (ip), vehicle: carboxymethylcellulose (CMC) 101 % of control | dose: 20.0 mg/kg/injection, schedule: Q01DX009 (ip), vehicle: carboxymethylcellulose (CMC) 120 % of control

Cc1ccc(-c2nc3ccccc3c(=O)n2/N=C/c2ccc(O)cc2)cc1
inactive: [12] 100 % of control | dose: 100.0 mg/kg/injection, schedule: Q01DX005 (ip), vehicle: saline with Tween-80 99 % of control | dose: 200.0 mg/kg/injection, schedule: Q01DX005 (ip), vehicle: saline with Tween-80 89 % of control

CC(C)c1ccc(OC(=N)c2ccccc2)cc1
inactive: [13] 98 % of control | [14] 100 % of control | [15] 89 % of control

c1ccc(CCNC2CCc3ccccc3C2)cc1 (centres undefined)
inactive: [12] 93 % of control

O=c1[nH]c(=O)c2[nH]c(=O)[nH]c(=O)c2[nH]1
inactive: [16] 99 % of control | [17] 96 % of control | [18] 103 % of control

CCc1cc(-c2cc(CC)nc(N)n2)nc(N)n1
inactive: dose: 60.0 mg/kg/injection, schedule: Q01DX005 (ip), vehicle: saline 97 % of control | dose: 120.0 mg/kg/injection, schedule: Q01DX005 (ip), vehicle: saline 104 % of control | dose: 240.0 mg/kg/injection, schedule: Q01DX005 (ip), vehicle: saline 100 % of control

COc1ccc(C(=O)CCN(C)C)cc1
inactive: [19] 104 % of control | [20] 104 % of control

CCOC(=O)c1ccc(NC(CCNC2CCCCC2)=NC(C)(C)C)cc1
inactive: [1] 96 % of control | [2] 97 % of control | [3] 96 % of control

CS(=O)(=O)OCCCCC/C=C/CCCCCCC1C=CCC1 (centres undefined)
inactive: dose: 100.0 mg/kg/injection, schedule: Q01DX001 (ip), vehicle: saline 98 % of control | dose: 200.0 mg/kg/injection, schedule: Q01DX001 (ip), vehicle: saline 99 % of control | dose: 400.0 mg/kg/injection, schedule: Q01DX001 (ip), vehicle: saline 100 % of control

O=C1C=C(O)CC(c2ccccc2)N1 (centres undefined)
inactive: [16] 102 % of control | [17] 104 % of control | [18] 108 % of control

CCN(CCOC(=O)Nc1ccc(F)cc1)c1ccccc1
inactive: [9] 111 % of control | [10] 96 % of control | [11] 94 % of control

c1ccc(-c2nn(-c3ccccc3)[n+](-c3ccccc3)n2)cc1
inactive: dose: 1.25 mg/kg/injection, schedule: Q01DX009 (ip), vehicle: saline with Tween-80 100 % of control | dose: 2.5 mg/kg/injection, schedule: Q01DX009 (ip), vehicle: saline with Tween-80 90 % of control

O=C(O)C(O)(c1ccccc1Cl)c1ccccc1Cl
inactive: [13] 105 % of control | [14] 110 % of control | [15] 109 % of control

COC1(OC)C(C#N)=C(c2ccccc2)C1(OC)OC
inactive: [21] 115 % of control | [7] 102 % of control | [8] 101 % of control

COC1C(CO)OC(n2cnc3c(=S)nc(N)[nH]c32)C1O (centres undefined)
inactive: [2] 122 % of control | dose: 264.0 mg/kg/injection, schedule: Q04DX003 (ip), vehicle: saline with Tween-80 109 % of control

CNc1nc2c(s1)c1c(O)c3c(O)c(C)c4c(c32)C(=O)C(C)(O/C=C/C(OC)C(C)C(OC(C)=O)C(C)C(O)C(C)C(O)C(C)/C=C/C=C(/C)C(=O)N1)O4 (centres undefined)
inactive: dose: 25.0 mg/kg/injection, schedule: Q01DX009 (ip), vehicle: Klucel (hydroxypropylcellulose) (HPC) 98 % of control | dose: 50.0 mg/kg/injection, schedule: Q01DX009 (ip), vehicle: Klucel (hydroxypropylcellulose) (HPC) 100 % of control | dose: 100.0 mg/kg/injection, schedule: Q01DX009 (ip), vehicle: Klucel (hydroxypropylcellulose) (HPC) 106 % of control | dose: 200.0 mg/kg/injection, schedule: Q01DX009 (ip), vehicle: Klucel (hydroxypropylcellulose) (HPC) 100 % of control

CC(C)(C)C1CN2CCO[Si](CC[Si](C)(C)C)(OCC2)O1 (centres undefined)
inactive: [16] 98 % of control | [17] 97 % of control | [18] 88 % of control

COC(=O)CCCNC(C)C
inactive: dose: 25.0 mg/kg/injection, schedule: Q01DX009 (ip), vehicle: water 97 % of control | dose: 50.0 mg/kg/injection, schedule: Q01DX009 (ip), vehicle: water 100 % of control | dose: 100.0 mg/kg/injection, schedule: Q01DX009 (ip), vehicle: water 98 % of control | dose: 200.0 mg/kg/injection, schedule: Q01DX009 (ip), vehicle: water 99 % of control | dose: 400.0 mg/kg/injection, schedule: Q01DX009 (ip), vehicle: water 99 % of control

O=S(=O)(CS(=O)(=O)Oc1ccccc1)Oc1ccccc1
inactive: dose: 100.0 mg/kg/injection, schedule: Q04DX002 (ip), vehicle: saline with Tween-80 104 % of control | dose: 200.0 mg/kg/injection, schedule: Q04DX002 (ip), vehicle: saline with Tween-80 96 % of control | dose: 400.0 mg/kg/injection, schedule: Q04DX002 (ip), vehicle: saline with Tween-80 98 % of control

COc1ccc(CSCc2c(CSCc3ccc(OC)c(OC)c3)c(CSCc3ccc(OC)c(OC)c3)c(CSCc3ccc(OC)c(OC)c3)c(CSCc3ccc(OC)c(OC)c3)c2CSCc2ccc(OC)c(OC)c2)cc1OC
inactive: [13] 96 % of control | [14] 90 % of control | [15] 102 % of control

COC(=O)CCC1=C(C)c2cc3[n-]c(cc4nc(cc5[n-]c(cc1n2)c(CCC(=O)OC)c5C)C=C4C)cc3C.[Ni+2]
inactive: [2] 90 % of control | [3] 90 % of control | dose: 400.0 mg/kg/injection, schedule: Q01DX009 (ip), vehicle: saline with Tween-80 86 % of control

Cc1ccc(C(=O)CSC2=NCCN2)cc1Cl
inactive: [9] 106 % of control | [10] 100 % of control | [11] 97 % of control

CCN(Cc1c(C)[nH]c2ccc(N(C)C)cc2c1=O)Cc1c(C)[nH]c2ccc(N(C)C)cc2c1=O
inactive: [19] 101 % of control | [20] 101 % of control | [22] 106 % of control

CNc1cc(C)c2ccc(N(C)C)cc2n1
inactive: [4] 98 % of control | [5] 102 % of control | [6] 101 % of control | [21] 93 % of control

O=C1NCC2CCCCC12 (centres undefined)
inactive: [16] 107 % of control | [17] 99 % of control | [18] 100 % of control

BOc1ccc(C)cc1CN(C)Cc1ccccc1
inactive: dose: 100.0 mg/kg/injection, schedule: Q04DX002 (ip), vehicle: Klucel (hydroxypropylcellulose) (HPC) 103 % of control | dose: 200.0 mg/kg/injection, schedule: Q04DX002 (ip), vehicle: Klucel (hydroxypropylcellulose) (HPC) 99 % of control | dose: 400.0 mg/kg/injection, schedule: Q04DX002 (ip), vehicle: Klucel (hydroxypropylcellulose) (HPC) 104 % of control

CN1CCC(OC(=O)Oc2ccccc2)CC1
inactive: [19] 105 % of control | [20] 92 % of control | [22] 102 % of control

Cc1ccc(Oc2ccc([N+](=O)[O-])c3[nH]c4ccccc4c(=O)c23)cc1
inactive: [1] 94 % of control | [2] 111 % of control | [3] 113 % of control
